In patent US9744171B2, “Positive allosteric modulators for melanocortin receptors” (Vanderbilt University, priority 2012, dated 2017):

Assay: High fat diet-induced weight gain in mice, osmotic minipump treatment
Assay type: in vivo
Experimental: FIG. 6 provides a bar graph showing a reduction in high fat diet-induced weight gain in mice by treatment with VU0055768. Wild type 12 week old male C57BL/6J mice were placed on a high fat diet for 5 days. Mice were then implanted subcutaneously with Alzet csmotic minipumps filled with vehicle (25% DMSO, 25% saline, 50% EtOH; n=6) or VU0055768 (25% compound in DMSO, 25% saline, 50% EtOH, n=5) so as to deliver 2.5 mg/kg/day of VU0055768. Mice were maintained on ad libitum access to water and high fat chow, and body weights were measured at the end of an additional 9 days. Bars indicate the mean and standard error of the data, and show a greater than 50% reduction in weight gain as a result of treatment with VU0055768
Eleven 12 weeks old Wt C57 mice were placed on high fat diet for 5 days. Osmotic pumps were filled with vehicle (25% DMSO, 25% saline, 50% EtOH) or VU0055768 (25% compound in DMSO, 25% saline, 50% EtOH) as to deliver 2.5 mg/kg/day, and were then inserted subcutaneously (6 vehicle, 5 compound) into the mice. The mice were fed ad-libidum with high fat diet. Mouse and food weight was measured daily. Statistical analysis of the results was t-test.

NCCc1c(-c2ccccc2)n(-c2ccccc2)c2ccccc12 [VU0055768]
reduction in weight gain (C57BL/6J mice on high fat diet, 2.5 mg/kg/day subcutaneous osmotic minipump, body weights after additional 9 days, vs vehicle): greater than 50%
weight gain (Wt C57 mice on high fat diet, 2.5 mg/kg/day subcutaneous osmotic pump, t-test vs vehicle): significantly reduced weight gain
